Test [1] concerns the target T1, Heat shock protein HSP 90-alpha (Homo sapiens, UniProt P07900).
Description: Inhibition of Hsp90alpha ATPase activity by malachite green ATP-ase assay
Test [2] deals with T1, Heat shock protein HSP 90-alpha. The source holds these as a separate data set.
Description: Binding affinity to Hsp90alpha N-terminal ATPase domain by TR-FRET assay based competitive binding assay
Test [3] shares this target. The test is described as follows: Inhibition of Hsp90alpha in human SKBR3 cells assessed as up-regulation of HSP70 protein by Western blot analysis. Type of test: cell-based, SK-BR-3.
In test [4] the test system is SK-BR-3. The test is described as follows: Cytotoxicity against human SKBR3 cells. Type of test: functional, cell-based.
The target of test [5] is T1, Heat shock protein HSP 90-alpha. The test is described as follows: Inhibition of Hsp90alpha in human SKBR3 cells assessed as ErbB2 degradation by Western blot analysis. It is filed as cell-based, SK-BR-3.
For test [6] the target is unchanged. The experiment in a line: Inhibition of Hsp90alpha in human H1299 cells assessed as HIF-1alpha degradation by luciferase reporter assay. It is filed as cell-based.

Molecules are shown by their SMILES.

Turning to `CC(=O)NCc1ccc2c(c1)[nH]c(=O)n2-c1cc(Cl)c(O)cc1O`, the IC50 in test [1] came out at 24800 nM; in test [2] it was 40 nM.

Regarding `O=C(NCc1ccc2c(c1)[nH]c(=O)n2-c1cc(Cl)c(O)cc1O)c1ccccc1`, the IC50 amounted to 22900 nM in test [1] and 72 nM in test [2].

`CS(=O)(=O)NCc1ccc2c(c1)[nH]c(=O)n2-c1cc(Cl)c(O)cc1O`: the IC50 in test [1] worked out at 25200 nM; in test [2], 50 nM.

In the case of `CCNC(=O)NCc1ccc2c(c1)[nH]c(=O)n2-c1cc(Cl)c(O)cc1O`, the IC50 in test [1] was found to be 14200 nM; in test [2], 33 nM.

Regarding `O=C(NCc1ccc2c(c1)[nH]c(=O)n2-c1cc(Cl)c(O)cc1O)Nc1ccccc1`, the IC50 in test [1] was determined as 15400 nM; in test [2], 60 nM.

On to `O=c1[nH]c2cc(CNS(=O)(=O)c3ccccc3)ccc2n1-c1cc(Cl)c(O)cc1O`, for which the IC50 in test [1] was determined as 3420 nM; in test [2], 27 nM.

In turn, `O=c1[nH]c2cc(CNS(=O)(=O)c3cccc4ccccc34)ccc2n1-c1cc(Cl)c(O)cc1O` returned an IC50 in test [1] of 550 nM. The EC50 was 60 nM in test [3], 12 nM in test [4], less than 100 nM in test [5] and 190 nM in test [6].

On to `O=c1[nH]c2cc(CNS(=O)(=O)c3ccc4ccccc4c3)ccc2n1-c1cc(Cl)c(O)cc1O`, for which the figures for the IC50 in test [1] and in test [2] were 1140 nM and 47 nM, respectively.

For `O=c1[nH]c2ccccc2n1-c1cc(C(F)(F)F)ccc1O`, the IC50 in test [1] was 127000 nM; in test [2] it was 2320 nM.

Take `O=c1[nH]c2ccccc2n1-c1ccc(O)cc1O`: in test [1], the IC50 is 85000 nM.

Consider `O=c1[nH]c2ccccc2n1-c1cc(O)ccc1O`, for which the values for the IC50 in test [1] and in test [2] were 200000 nM and 34900 nM, respectively.

For `O=c1[nH]c2ccccc2n1-c1cc(Cl)c(O)cc1O`, the IC50 in test [1] is 15200 nM; in test [2], 54 nM.

With `O=c1[nH]c2ccccc2n1-c1cc(O)c(Cl)cc1O`, the figures for the IC50 in test [1] and in test [2] were 200000 nM and 2530 nM, respectively.

In test [4], `CCNC(=O)c1n[nH]c(-c2cc(Cl)c(O)cc2O)c1-c1ccc(OC)cc1` returned a half-maximal effective concentration (EC50) of 250 nM.

As to `O=c1[nH]c2cc(C(F)(F)F)ccc2n1-c1cc(C(F)(F)F)ccc1O`, the IC50 was found to be 81000 nM in test [1] and 3320 nM in test [2].

In test [4], `C=CCNC1=C2C[C@@H](C)C[C@H](OC)[C@H](O)[C@@H](C)/C=C(\C)[C@H](OC(N)=O)[C@@H](OC)/C=C\C=C(/C)C(=O)NC(=CC1=O)C2=O` [TANESPIMYCIN] gave an EC50 of 25 nM.

These data come from ChEMBL document CHEMBL1800029, “N-aryl-benzimidazolones as novel small molecule HSP90 inhibitors” (Bioorg Med Chem Lett, 2010).
